Assay results from US20220281848A1, “PYRAZOLE-SUBSTITUTED PYRROLIDINONES AS HERBICIDES” (FMC Corporation, priority 2019, published 2022).

Assays:
Format in all cases: in vivo
plants = assay: Test D post-emergence, other plants of Tables D2 and D4; settings: post-emergence
Procedure: A formulation containing 50 g/L of the test chemical was prepared by dissolving the active ingredient in a mixture of organic solvents and emulsifier, details of which are provided in the table. This formulation was then mixed with a small, variable amount of acetone to aid dissolution, before addition of a 0.2% v/v aqueous solution of an adjuvant, as the aqueous diluent, to form an aqueous spray solution which contains a predetermined concentration of the active ingredient.
This aqueous spray solution was then sprayed onto plants including maize and wheat that had been seed treated with a herbicide safener, after one day's cultivation (for pre-emergence) or after about 12 days' cultivation (for post-emergence). The plants were grown from seeds sown in standard soil, placed in a glasshouse under controlled conditions (at 24/18° C. or 20/16° C., day/night; 16 h light; 65% humidity). After spray application the plants were then grown in a glasshouse under the same conditions and watered twice daily. After 15 d for post-emergence and 20 DAA for pre-emergence the test was evaluated (100=total damage to plant; 0=no damage to plant).

corn (Zea mays, ZEAMX) = assay: Test A post-emergence, corn; settings: after 13 d
Outline: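 Plants sown in standard soil were grown 8 d in a glasshouse (24/16 °C day/night, 14 h light, 65% humidity), then sprayed with compound in acetone/water (50:50) with 0.5% Tween 20 at 15.625, 62.5 or 250 g/ha. Damage was scored after 13 d (0 = none, 100 = total).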

[1] = test system: redroot pigweed (Amaranthus retroflexus, AMARE); assay: Test A pre-emergence, redroot pigweed; settings: after 13 d
Outline: (§1)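 Seeds were sown in standard soil in pots, kept one day in a glasshouse (24/16° C. day/night, 14 h light, 65% humidity), then sprayed with compound in acetone/water (50:50) containing 0.5% Tween 20 at 15.625, 62.5 or 250 g/ha. Plants grew on under the same conditions, watered twice daily, and damage was scored after 13 d (0 = none, 100 = total).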

[2] = test system: velvetleaf (Abutilon theophrasti, ABUTH); assay: Test A pre-emergence, velvetleaf; settings: after 13 d
Outline: as §1

CN1CC(c2cc(C(F)(F)F)n(C)n2)C(C(=O)Nc2cccc(F)c2F)C1=O (racemic) [Compound 3]
damage to plant (100=total damage to plant; 0=no damage to plant), AMARE (plants; rate 250, evaluated after 15 d): 0 | damage to plant (100=total damage to plant; 0=no damage to plant), AMARE (plants; rate 500, evaluated after 15 d): 10 | damage to plant (100=total damage to plant; 0=no damage to plant), BIDPI (plants; rate 130, evaluated after 15 d): 0 | damage to plant (100=total damage to plant; 0=no damage to plant), BIDPI (plants; rate 250, evaluated after 15 d): 0 | damage to plant (100=total damage to plant; 0=no damage to plant), BIDPI (plants; rate 500, evaluated after 15 d): 0 | damage to plant (100=total damage to plant; 0=no damage to plant), BRAPL (plants; rate 130, evaluated after 15 d): 40 | damage to plant (100=total damage to plant; 0=no damage to plant), BRAPL (plants; rate 250, evaluated after 15 d): 60 | damage to plant (100=total damage to plant; 0=no damage to plant), BRAPL (plants; rate 500, evaluated after 15 d): 70 | damage to plant (100=total damage to plant; 0=no damage to plant), CYPES (plants; rate 130, evaluated after 15 d): 0 | damage to plant (100=total damage to plant; 0=no damage to plant), CYPES (plants; rate 250, evaluated after 15 d): 0 | damage to plant (100=total damage to plant; 0=no damage to plant), CYPES (plants; rate 500, evaluated after 15 d): 10 | damage to plant (100=total damage to plant; 0=no damage to plant), DIGSA (plants; rate 130, evaluated after 15 d): 0 | damage to plant (100=total damage to plant; 0=no damage to plant), DIGSA (plants; rate 250, evaluated after 15 d): 10 | damage to plant (100=total damage to plant; 0=no damage to plant), DIGSA (plants; rate 500, evaluated after 15 d): 60 | damage to plant (100=total damage to plant; 0=no damage to plant), ECHCG (plants; rate 130, evaluated after 15 d): 40 | damage to plant (100=total damage to plant; 0=no damage to plant), ECHCG (plants; rate 250, evaluated after 15 d): 60 | damage to plant (100=total damage to plant; 0=no damage to plant), ECHCG (plants; rate 500, evaluated after 15 d): 80 | damage to plant (100=total damage to plant; 0=no damage to plant), ELEIN (plants; rate 130, evaluated after 15 d): 0 | damage to plant (100=total damage to plant; 0=no damage to plant), ELEIN (plants; rate 250, evaluated after 15 d): 0 | damage to plant (100=total damage to plant; 0=no damage to plant), ELEIN (plants; rate 500, evaluated after 15 d): 0 | damage to plant (100=total damage to plant; 0=no damage to plant), EPHHL (plants; rate 130, evaluated after 15 d): 0 | damage to plant (100=total damage to plant; 0=no damage to plant), EPHHL (plants; rate 250, evaluated after 15 d): 0 | damage to plant (100=total damage to plant; 0=no damage to plant), EPHHL (plants; rate 500, evaluated after 15 d): 0 | damage to plant (100=total damage to plant; 0=no damage to plant), GLXMA (plants; rate 130, evaluated after 15 d): 10 | damage to plant (100=total damage to plant; 0=no damage to plant), GLXMA (plants; rate 250, evaluated after 15 d): 10 | damage to plant (100=total damage to plant; 0=no damage to plant), GLXMA (plants; rate 500, evaluated after 15 d): 20 | damage to plant (100=total damage to plant; 0=no damage to plant), IPOHE (plants; rate 130, evaluated after 15 d): 0 | damage to plant (100=total damage to plant; 0=no damage to plant), IPOHE (plants; rate 250, evaluated after 15 d): 0 | damage to plant (100=total damage to plant; 0=no damage to plant), IPOHE (plants; rate 500, evaluated after 15 d): 0 | damage to plant (100=total damage to plant; 0=no damage to plant), ORYSA (plants; rate 130, evaluated after 15 d): 0 | damage to plant (100=total damage to plant; 0=no damage to plant), ORYSA (plants; rate 250, evaluated after 15 d): 0 | damage to plant (100=total damage to plant; 0=no damage to plant), ORYSA (plants; rate 500, evaluated after 15 d): 20 | damage to plant (100=total damage to plant; 0=no damage to plant), PANMI (plants; rate 130, evaluated after 15 d): 0 | damage to plant (100=total damage to plant; 0=no damage to plant), PANMI (plants; rate 250, evaluated after 15 d): 0 | damage to plant (100=total damage to plant; 0=no damage to plant), PANMI (plants; rate 500, evaluated after 15 d): 0 | damage to plant (100=total damage to plant; 0=no damage to plant), SETFA (plants; rate 130, evaluated after 15 d): 0 | damage to plant (100=total damage to plant; 0=no damage to plant), SETFA (plants; rate 250, evaluated after 15 d): 0 | damage to plant (100=total damage to plant; 0=no damage to plant), SETFA (plants; rate 500, evaluated after 15 d): 60 | damage to plant (100=total damage to plant; 0=no damage to plant), SIDSP (plants; rate 130, evaluated after 15 d): 0 | damage to plant (100=total damage to plant; 0=no damage to plant), SIDSP (plants; rate 250, evaluated after 15 d): 0 | damage to plant (100=total damage to plant; 0=no damage to plant), SIDSP (plants; rate 500, evaluated after 15 d): 0 | damage to plant (100=total damage to plant; 0=no damage to plant), SORVU (plants; rate 130, evaluated after 15 d): 0 | damage to plant (100=total damage to plant; 0=no damage to plant), SORVU (plants; rate 250, evaluated after 15 d): 0 | damage to plant (100=total damage to plant; 0=no damage to plant), SORVU (plants; rate 500, evaluated after 15 d): 0 | damage to plant (100=total damage; 0=no damage) ZEAMX (corn (Zea mays, ZEAMX); Post-Emergence at 15.625 g/ha): 0 | damage to plant (100=total damage; 0=no damage) ZEAMX (corn (Zea mays, ZEAMX); Post-Emergence at 62.5 g/ha): 50 | damage to plant (100=total damage; 0=no damage) ZEAMX (corn (Zea mays, ZEAMX); Post-Emergence at 250 g/ha): 80 | damage to plant (100=total damage; 0=no damage) AMARE ([1]; Pre-Emergence at 15.625 g/ha): 20 | damage to plant (100=total damage; 0=no damage) AMARE ([1]; Pre-Emergence at 62.5 g/ha): 20 | damage to plant (100=total damage; 0=no damage) AMARE ([1]; Pre-Emergence at 250 g/ha): 70 | damage to plant (100=total damage; 0=no damage) ABUTH ([2]; Pre-Emergence at 15.625 g/ha): 0 | damage to plant (100=total damage; 0=no damage) ABUTH ([2]; Pre-Emergence at 62.5 g/ha): 0 | damage to plant (100=total damage; 0=no damage) ABUTH ([2]; Pre-Emergence at 250 g/ha): 10
